One assay deals with CDK4/Cyclin D1 (Homo sapiens (Human), UniProt P11802). The assay is described as follows: CDK4 filtration kinase assay. It is filed as biochemical. Particulars: CDK4/Cyclin D1, Rb fragment substrate, [33P]-ATP filtration assay. On the procedure:
The CDK4 and CDK1 inhibitory activity of the CDK4/6-FLT3 inhibitors was determined with a filtration kinase assay. The compounds, kinase and substrate diluted in the kinase buffer (20 mM Tris, pH7.4, 50 mM NaCl, 1 mM DTT, 0.1% BSA) were sequentially added to a 96-well Multiscreen HTS filtration plate (Millipore). The final 100 μL reaction mixture in each well contained 0.3 μg of CDK4/Cyclin D1 or CDK1/Cyclin B (Cell Signaling Technology), 1 μg of Rb fragment (aa773-928, Millipore) for the CDK4 assay or 5 μg of histone H1 for the CDK1 assay and 1 μCi of [^33P]-ATP. The mixture was incubated at room temperature for 1 hour. The proteins in the reaction were then precipitated and washed with cold TCA solution using an aspiration/filtration vacuum system. The plates were dried at room temperature, and the retained radioactivity was measured by scintillation counting.
(§1) IC50 values of the compounds in the above assays were determined by non-linear regression analysis using Prism (GraphPad Software).

Another assay concerns MOLM13 cells. The assay is described as follows: [14C]-thymidine incorporation cell proliferation assay, MOLM13. In kind it is cell-based, human. The method, then: The cell proliferation inhibition potency of the CDK4/6-FLT3 inhibitors was determined by using a [^14C]-thymidine incorporation assay. Exponentially growing cells (MOLM-13, Colo-205, etc.) were seeded in a 96-well Cytostar T plate (GE Healthcare Biosciences) at a density of 5×10^3 cells/well and incubated overnight. Serially diluted compounds and 0.1 μCi of [^14C]-thymidine (GE Healthcare Biosciences) were added to each well on the following day. After 72 hour incubation, isotope incorporation was determined with a β plate counter (Wallac). MOLM13 is a human AML tumor cell line expressing FLT3, FLT3^ITD and wild type Rb.
as §1

Assay [1] deals with FLT3 enzyme (GST-FLT3 fusion) (Homo sapiens (Human), UniProt P36888). The assay is described as follows: FLT3 HTRF kinase assay. In kind it is biochemical. Conditions: 116 μM ATP. On the procedure: The FLT3 inhibitory activity of the CDK4/6-FLT3 inhibitors was determined with a HTRF kinase assay. The FLT3 enzyme (GST-FLT3 fusion) was purchased from Carna Biosciences. An ULight-labeled synthetic peptide derived from human Janus kinase 1 (aa1015-1027, ULight-JAK1, PerkinElmer) was utilized as the phosphoacceptor substrate. The assay was conducted in a 384-well white OptiPlate (PerkinElmer). The 20 μL reaction mixture contained 50 nM ULight-JAK1, 116 μM ATP, 0.0385 ng/μL FLT3 and dilutions of test compounds in the kinase buffer (50 mM Hepes, pH 7.6, 1 mM EGTA, 10 mM MgCl2, 2 mM DTT, and 0.005% Tween 20). The reaction was allowed to proceed for 1 hour at room temperature and was stopped by adding 20 μL of 10 mM EDTA, 2 nM LANCE® Eu-W1024 anti-phospho-tyrosine antibody in LANCE® detection buffer (PerkinElmer). The plates were incubated at room temperature for 2 hours after addition of detection reagents and then read on an Envision multimode reader (PerkinElmer).
FLT3 enzyme (GST-FLT3 fusion), sequence (P36888 27-993): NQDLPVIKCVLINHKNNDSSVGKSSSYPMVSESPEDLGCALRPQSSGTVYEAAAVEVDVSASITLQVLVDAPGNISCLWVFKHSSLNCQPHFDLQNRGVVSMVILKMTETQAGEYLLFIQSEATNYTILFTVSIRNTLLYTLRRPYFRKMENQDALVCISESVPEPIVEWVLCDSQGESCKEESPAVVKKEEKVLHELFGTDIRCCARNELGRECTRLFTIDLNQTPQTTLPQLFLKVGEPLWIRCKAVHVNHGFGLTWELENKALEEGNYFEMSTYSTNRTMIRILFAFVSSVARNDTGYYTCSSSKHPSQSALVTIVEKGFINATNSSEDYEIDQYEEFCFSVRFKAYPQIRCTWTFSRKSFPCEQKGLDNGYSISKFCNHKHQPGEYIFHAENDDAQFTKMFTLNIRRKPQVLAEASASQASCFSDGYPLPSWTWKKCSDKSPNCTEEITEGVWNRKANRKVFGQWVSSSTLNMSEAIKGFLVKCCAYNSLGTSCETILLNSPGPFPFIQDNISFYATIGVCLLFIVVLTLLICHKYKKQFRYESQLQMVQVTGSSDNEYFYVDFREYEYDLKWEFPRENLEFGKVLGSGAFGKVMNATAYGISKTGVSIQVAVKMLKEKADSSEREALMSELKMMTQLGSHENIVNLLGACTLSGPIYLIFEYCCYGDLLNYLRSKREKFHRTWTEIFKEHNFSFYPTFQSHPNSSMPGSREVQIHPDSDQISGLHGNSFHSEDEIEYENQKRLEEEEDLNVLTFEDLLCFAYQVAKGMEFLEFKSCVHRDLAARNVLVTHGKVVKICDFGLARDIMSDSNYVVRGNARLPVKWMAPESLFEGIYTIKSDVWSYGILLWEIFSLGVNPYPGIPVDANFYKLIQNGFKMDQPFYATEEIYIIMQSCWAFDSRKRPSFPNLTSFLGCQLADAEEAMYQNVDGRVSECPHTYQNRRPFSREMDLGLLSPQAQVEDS
as §1
On the technique in general: TR-FRET usually uses a lanthanide donor and a delayed reading to cut background.

Setting [2] is: Homo sapiens, MOLM-13, 72 hour incubation.

18 molecules from US8623885B2, “Fused tricyclic dual inhibitors of CDK 4/6 and FLT3” (Amgen Inc., priority 2011, dated 2014) can be followed below.

Usually IC50 stands for the concentration that gives 50% inhibition.

CDK4/Cyclin D1, sequence (P11802 whole entry, the tested form may be a part): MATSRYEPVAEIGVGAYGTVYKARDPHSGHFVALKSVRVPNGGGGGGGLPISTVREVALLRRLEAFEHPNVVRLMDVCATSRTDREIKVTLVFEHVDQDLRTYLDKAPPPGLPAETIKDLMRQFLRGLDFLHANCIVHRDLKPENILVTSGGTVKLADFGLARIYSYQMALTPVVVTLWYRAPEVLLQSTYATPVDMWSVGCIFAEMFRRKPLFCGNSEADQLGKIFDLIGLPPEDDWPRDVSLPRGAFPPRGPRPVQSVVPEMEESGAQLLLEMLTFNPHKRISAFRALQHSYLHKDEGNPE
CDK4/Cyclin D1, sequence (P24385 whole entry partner, the tested form may be a part): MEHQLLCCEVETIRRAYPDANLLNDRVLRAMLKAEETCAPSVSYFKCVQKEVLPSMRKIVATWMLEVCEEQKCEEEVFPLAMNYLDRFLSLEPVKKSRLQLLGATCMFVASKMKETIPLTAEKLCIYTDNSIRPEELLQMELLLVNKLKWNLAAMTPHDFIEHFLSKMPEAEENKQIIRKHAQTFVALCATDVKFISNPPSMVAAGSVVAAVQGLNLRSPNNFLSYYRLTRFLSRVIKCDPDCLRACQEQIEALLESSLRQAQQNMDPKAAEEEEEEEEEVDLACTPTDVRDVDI

`C[C@H]1CC[C@H](n2c3cnccc3c3cnc(Nc4cc5c(cn4)CNCC5)nc32)CC1` [Example 24, 9-((1r,4r)-4-Methylcyclohexyl)-N-(5,6,7,8-tetrahydro-2,7-naphthyridin-3-yl)-9H-pyrido[4′,3′:4,5]pyrrolo[2,3-d]pyrimidin-2-amine]: the IC50 against CDK4/Cyclin D1 is 4.7 nM; in the assay on MOLM13 cells (setting [2]), 3.5 nM.

On to `CC(=O)N1Cc2ccc(Nc3ncc4c5ccncc5n([C@H]5CC[C@H](C)CC5)c4n3)nc2C(C)C1` (stereo partly shown) [Example 14, 1-(8-Methyl-2-((9-((1r,4r)-4-methylcyclohexyl)-9H-pyrido[4′,3′:4,5]pyrrolo[2,3-d]pyrimidin-2-yl)amino)-7,8-dihydro-1,6-naphthyridin-6(5H)-yl)ethanone], for which the values for the IC50 (in assay [1]; at CDK4/Cyclin D1; with MOLM13 cells (setting [2])) were 3.2 nM, 4.4 nM and 10.6 nM, respectively.

As for `C[C@H]1CC[C@H](n2c3cnccc3c3cnc(Nc4cc5c(cn4)CCN(CCO)C5)nc32)CC1` [Example 12, 2-(7-((9-((1r,4r)-4-Methylcyclohexyl)-9H-pyrido[4′,3′:4,5]pyrrolo[2,3-d]pyrimidin-2-yl)amino)-3,4-dihydro-2,6-naphthyridin-2(1H)-yl)ethanol], the concentration for half-maximal inhibition (IC50) in assay [1] was 2.7 nM; against CDK4/Cyclin D1 it was 18.4 nM; with MOLM13 cells (setting [2]), 10.8 nM.

As for `C[C@H]1CC[C@H](n2c3cnccc3c3cnc(Nc4ccc5c(n4)CN(C(=O)CO)CC5)nc32)CC1` [Example 30, 2-Hydroxy-1-(2-((9-((1r,4r)-4-methylcyclohexyl)-9H-pyrido[4′,3′:4,5]pyrrolo[2,3-d]pyrimidin-2-yl)amino)-5,6-dihydro-1,7-naphthyridin-7(8H)-yl)ethanone], the half-inhibitory concentration (IC50) against CDK4/Cyclin D1 was found to be 6.3 nM; with MOLM13 cells (setting [2]), 3 nM.

Take `C[C@H]1CC[C@H](n2c3cnccc3c3cnc(Nc4ccc5c(n4)CNCC5)nc32)CC1` [Example 23, 9-((1r,4r)-4-Methylcyclohexyl)-N-(5,6,7,8-tetrahydro-1,7-naphthyridin-2-yl)-9H-pyrido[4′,3′:4,5]pyrrolo[2,3-d]pyrimidin-2-amine]: the values for the half-inhibitory concentration (IC50) against CDK4/Cyclin D1 and in the assay with MOLM13 cells (setting [2]) were 8.6 nM and 1.5 nM, respectively.

Consider `C[C@H]1CC[C@H](n2c3cnccc3c3cnc(Nc4cc5c(cn4)CN(C(=O)CO)CC5)nc32)CC1` [Example 31, 2-Hydroxy-1-(6-((9-((1r,4r)-4-methylcyclohexyl)-9H-pyrido[4′,3′:4,5]pyrrolo[2,3-d]pyrimidin-2-yl)amino)-3,4-dihydro-2,7-naphthyridin-2(1H)-yl)ethanone], for which the concentration for half-maximal inhibition (IC50) on CDK4/Cyclin D1 is 35 nM; in the assay with MOLM13 cells (setting [2]), 6.7 nM.

With `CC(=O)N1Cc2ccc(Nc3ncc4c5ccncc5n([C@H]5CC[C@H](C)CC5)c4n3)nc2[C@@H](C)C1` (single isomer, unassigned) [Example 18b, 1-((R)-8-Methyl-2-((9-((1 r,4R)-4-methylcyclohexyl)-9H-pyrido[4′,3′:4,5]pyrrolo[2,3-d]pyrimidin-2-yl)amino)-7,8-dihydro-1,6-naphthyridin-6(5H)-yl)ethanone or 1-((S)-8-methyl-2-09-((1r,4S)-4-methylcyclohexyl)-9H-pyrido[4′,3′:4,5]pyrrolo[2,3-d]pyrimidin-2-yl)amino)-7,8-dihydro-1,6-naphthyridin-6(5H)-yl)ethanone], the IC50 in assay [1] stood at 2.3 nM; on CDK4/Cyclin D1, 463 nM; with MOLM13 cells (72 hour incubation), 20 nM.

For the molecule `C[C@H]1CC[C@H](n2c3cnccc3c3cnc(Nc4ccc5c(n4)C(O)CNC5)nc32)CC1` (stereo partly shown) [Example 16, 2-((9-((1r,4r)-4-Methylcyclohexyl)-9H-pyrido[4′,3′:4,5]pyrrolo[2,3-d]pyrimidin-2-yl)amino)-5,6,7,8-tetrahydro-1,6-naphthyridin-8-ol], the half-inhibitory concentration (IC50) in assay [1] amounted to 1.4 nM; on CDK4/Cyclin D1 it was 16.5 nM; with MOLM13 cells (setting [2]), 23.9 nM.

Take `C[C@H](O)C(=O)N1CCc2nc(Nc3ncc4c5ccncc5n([C@H]5CC[C@H](C)CC5)c4n3)ccc2C1` [Example 32, (S)-2-Hydroxy-1-(2-((9-((1r,4r)-4-methylcyclohexyl)-9H-pyrido[4′,3′:4,5]pyrrolo[2,3-d]pyrimidin-2-yl)amino)-7,8-dihydro-1,6-naphthyridin-6(5H)-yl)propan-1-one]: the concentration for half-maximal inhibition (IC50) against CDK4/Cyclin D1 is 12 nM; in the assay on MOLM13 cells (setting [2]), 1.8 nM.

For `C[C@H]1CC[C@H](n2c3cnccc3c3cnc(Nc4ccc5c(n4)CCN(CCC(F)(F)F)C5)nc32)CC1` [Example 7, 9-((1r,4r)-4-Methylcyclohexyl)-N-(6-(3,3,3-trifluoropropyl)-5,6,7,8-tetrahydro-1,6-naphthyridin-2-yl)-9H-pyrido[4′,3′:4,5]pyrrolo[2,3-d]pyrimidin-2-amine], the half-inhibitory concentration (IC50) in assay [1] was 21.4 nM; in the assay with MOLM13 cells (setting [2]), 206 nM.

With `COCCN1CCc2nc(Nc3ncc4c5ccncc5n([C@H]5CC[C@H](C)CC5)c4n3)ccc2C1` [Example 10, N-(6-(2-Methoxyethyl)-5,6,7,8-tetrahydro-1,6-naphthyridin-2-yl)-9-((1r,4r)-4-methylcyclohexyl)-9H-pyrido[4′,3′:4,5]pyrrolo[2,3-d]pyrimidin-2-amine], the concentration for half-maximal inhibition (IC50) in assay [1] was 1.7 nM; on CDK4/Cyclin D1 it was 10.5 nM; in the assay with MOLM13 cells (setting [2]), 33.2 nM.

With `C[C@H]1CC[C@H](n2c3cnccc3c3cnc(Nc4ccc5c(n4)CCN(CCO)C5)nc32)CC1` [Example 3, 2-(2-((9-((1r,4r)-4-Methylcyclohexyl)-9H-pyrido[4′,3′:4,5]pyrrolo[2,3-d]pyrimidin-2-yl)amino)-7,8-dihydro-1,6-naphthyridin-6(5H)-yl)ethanol], the IC50 in assay [1] was found to be 1.8 nM; against CDK4/Cyclin D1 it was 2.6 nM; in the assay on MOLM13 cells (setting [2]) it was 14.8 nM.

`C[C@@H](O)C(=O)N1CCc2nc(Nc3ncc4c5ccncc5n([C@H]5CC[C@H](C)CC5)c4n3)ccc2C1` [Example 33, (R)-2-hydroxy-1-(2-((9-((1r,4r)-4-methylcyclohexyl)-9H-pyrido[4′,3′:4,5]pyrrolo[2,3-d]pyrimidin-2-yl)amino)-7,8-dihydro-1,6-naphthyridin-6(5H)-yl)propan-1-one]: the 50% inhibitory concentration (IC50) on CDK4/Cyclin D1 is 41 nM; with MOLM13 cells (setting [2]) it was 3.1 nM.

`CC(C)(C)OC(=O)N1CCc2cc(Nc3ncc4c5ccncc5n([C@H]5CC[C@H](C)CC5)c4n3)ncc2C1` [Example 36, tert-Butyl 6-((9-((1r,4r)-4-methylcyclohexyl)-9H-pyrido[4′,3′:4,5]pyrrolo[2,3-d]pyrimidin-2-yl)amino)-3,4-dihydro-2,7-naphthyridine-2(1H)-carboxylate] yielded a half-maximal inhibitory concentration (IC50) against CDK4/Cyclin D1 of 350 nM. In other words, the sub-micromolar range.

For `CCN(CC)CC(=O)N1CCc2nc(Nc3ncc4c5ccncc5n([C@H]5CC[C@H](C)CC5)c4n3)ccc2C1` [Example 37, 2-(Diethylamino)-1-(2-((9-((1r,4r)-4-methylcyclohexyl)-9H-pyrido[4′,3′:4,5]pyrrolo[2,3-d]pyrimidin-2-yl)amino)-7,8-dihydro-1,6-naphthyridin-6(5H)-yl)ethanone], the IC50 is 3 nM on CDK4/Cyclin D1 and 1.4 nM with MOLM13 cells (setting [2]).

In the case of `C[C@H]1CC[C@H](n2c3cnccc3c3cnc(Nc4ccc5c(n4)C(O)CN(CCO)C5)nc32)CC1` (stereo partly shown) [Example 17, 6-(2-Hydroxyethyl)-2-((9-((1r,4r)-4-methylcyclohexyl)-9H-pyrido[4′,3′:4,5]pyrrolo[2,3-d]pyrimidin-2-yl)amino)-5,6,7,8-tetrahydro-1,6-naphthyridin-8-ol], it took 21.9 nM to reach half-maximal inhibition in the assay on MOLM13 cells (setting [2]) (IC50).

For the molecule `CN(C)CC(=O)N1CCc2nc(Nc3ncc4c5ccncc5n([C@H]5CC[C@H](C)CC5)c4n3)ccc2C1` [Example 34, 2-(Dimethylamino)-1-(2-((9-((1r,4r)-4-methylcyclohexyl)-9H-pyrido[4′,3′:4,5]pyrrolo[2,3-d]pyrimidin-2-yl)amino)-7,8-dihydro-1,6-naphthyridin-6(5H)-yl)ethanone], the results for the IC50 on CDK4/Cyclin D1 and with MOLM13 cells (setting [2]) were 3 nM and 0.3 nM, respectively.

`CC(C)(C)OC(=O)N1CCc2ccc(Nc3ncc4c5ccncc5n([C@H]5CC[C@H](C)CC5)c4n3)nc2C1` [Example 35, tert-Butyl 2-((9-((1r,4r)-4-methylcyclohexyl)-9H-pyrido[4′,3′:4,5]pyrrolo[2,3-d]pyrimidin-2-yl)amino)-5,6-dihydro-1,7-naphthyridine-7(8H)-carboxylate]: the half-maximal inhibitory concentration (IC50) at CDK4/Cyclin D1 was 26 nM; with MOLM13 cells (setting [2]), 480 nM.
